Source: PMC7377239, “Cardiovascular Effects of Polychlorinated Biphenyls and Their Major Metabolites” (Environmental Health Perspectives, 2020)
Read-outs that look alike come from different tables or passages of the source.

How the values were obtained:
[1] = tested on: iCell endothelial cells (human iPSC-derived ECs); assay: Tube formation (tubulogenesis) assay in iCell endothelial cells, 18 h; type: cell-based; details: Homo sapiens, Endothelial cell, iPSC-EC; for activity at 0.1 µM: 0.10 µM; for minimal effective concentration: 100.00 = highest concentration tested
Method in brief: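 Tube formation was measured by calcein AM imaging after overnight compound exposure (37°C, 0.5% DMSO vehicle) of human iPSC-derived ECs, 7,500/well, on reduced-growth-factor Geltrex in starvation medium. Vehicle-normalized data fitted to four-parameter logistic; POD set at one vehicle SD; without response, 100 μM taken as NOAEL.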

[2] = tested on: HUVECs; assay: Tube formation (tubulogenesis) assay in HUVECs, 18 h; type: cell-based, human; details: Homo sapiens, HUVEC, 18 h, HUVECs tube formation; for activity at 0.01 µM: concentration 0.01 µM; for activity at 0.1 µM: concentration 0.10 µM; for activity at 1 µM: concentration 1.00 µM; for activity at 10 µM: concentration 10.00 µM; for activity at 100 µM: concentration 100.00 µM
Method in brief: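 HUVECs (passage 1–5) seeded on reduced-growth-factor basement membrane and exposed to compounds overnight at 37°C, 5% CO2, in 2× maintenance medium with 12.5 ng/mL VEGF; 0.5% DMSO vehicle. Calcein AM-stained tube networks imaged and analysed; vehicle-normalized readouts fit to four-parameter logistic, POD set at one SD of vehicle means.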

[3] = 0.00 µM = 100.00, read-out: endo.mtl.18hr
[4] = 0.00 µM = 100.00, read-out: endo.tlps.18hr
[5] = 0.00 µM = 100.00, read-out: endo.tta.18hr
[6] = 0.00 µM = 100.00, read-out: endo.ttl.18hr
[7] = MAX 100.00, read-out: huvec.mtl.18hr POD
[8] = MAX 100.00, read-out: huvec.tlps.18hr POD
[9] = MAX 100.00, read-out: huvec.tta.18hr POD
[10] = MAX 100.00, read-out: huvec.ttl.18hr POD
[11] = 0.00 µM = 100.00, read-out: huvec.mtl.18hr
[12] = 0.00 µM = 100.00, read-out: huvec.tlps.18hr
[13] = 0.00 µM = 100.00, read-out: huvec.tta.18hr
[14] = 0.00 µM = 100.00, read-out: huvec.ttl.18hr

Clc1ccc(-c2cc(Cl)c(Cl)c(Cl)c2)cc1Cl [PCB126]
activity at 0.01 µM [1, 3]: 99.5%
activity at 0.01 µM [1, 4]: 175%
activity at 0.01 µM [1, 5]: 91%
activity at 0.01 µM [1, 6]: 90.1%
activity at 0.1 µM [1, 3]: 125%
activity at 0.1 µM [1, 4]: 110%
activity at 0.1 µM [1, 5]: 130%
activity at 0.1 µM [1, 6]: 136%
activity at 1 µM [1, 3]: 104%
activity at 1 µM [1, 4]: 99.1%
activity at 1 µM [1, 5]: 126%
activity at 1 µM [1, 6]: 125%
activity at 10 µM [1, 3]: 93.8%
activity at 10 µM [1, 4]: 52.4%
activity at 10 µM [1, 5]: 91.2%
activity at 10 µM [1, 6]: 100%
activity at 100 µM [1, 3]: 74.1%
activity at 100 µM [1, 4]: 40.1%
activity at 100 µM [1, 5]: 41.4%
activity at 100 µM [1, 6]: 39.6%
minimal effective concentration ([1]; read-out: endo.mtl.18hr POD): 28.1 µM
minimal effective concentration ([1]; read-out: endo.tlps.18hr POD): 4.68 µM
minimal effective concentration ([1]; read-out: endo.tta.18hr POD): 25.7 µM
minimal effective concentration ([1]; read-out: endo.ttl.18hr POD): 38.9 µM
minimal effective concentration [2, 7]: 100 µM
minimal effective concentration [2, 8]: 100 µM
minimal effective concentration [2, 9]: 100 µM
minimal effective concentration [2, 10]: 100 µM
activity at 0.01 µM [2, 11]: 93.6%
activity at 0.01 µM [2, 12]: 51.1%
activity at 0.01 µM [2, 13]: 51.1%
activity at 0.01 µM [2, 14]: 53.8%
activity at 0.1 µM [2, 11]: 98.7%
activity at 0.1 µM [2, 12]: 67.7%
activity at 0.1 µM [2, 13]: 80.9%
activity at 0.1 µM [2, 14]: 84.3%
activity at 1 µM [2, 11]: 87.8%
activity at 1 µM [2, 12]: 61.4%
activity at 1 µM [2, 13]: 77.3%
activity at 1 µM [2, 14]: 83.6%
activity at 10 µM [2, 11]: 89.6%
activity at 10 µM [2, 12]: 52.3%
activity at 10 µM [2, 13]: 94.3%
activity at 10 µM [2, 14]: 100%
activity at 100 µM [2, 11]: 83.2%
activity at 100 µM [2, 12]: 59.4%
activity at 100 µM [2, 13]: 92.7%
activity at 100 µM [2, 14]: 88.9%

Clc1cc(Cl)c(-c2cc(Cl)c(Cl)cc2Cl)cc1Cl [PCB153]
activity at 0.01 µM [1, 3]: 121%
activity at 0.01 µM [1, 4]: 80.7%
activity at 0.01 µM [1, 5]: 103%
activity at 0.01 µM [1, 6]: 116%
activity at 0.1 µM [1, 3]: 119%
activity at 0.1 µM [1, 4]: 104%
activity at 0.1 µM [1, 5]: 124%
activity at 0.1 µM [1, 6]: 134%
activity at 1 µM [1, 3]: 122%
activity at 1 µM [1, 4]: 111%
activity at 1 µM [1, 5]: 111%
activity at 1 µM [1, 6]: 123%
activity at 10 µM [1, 3]: 135%
activity at 10 µM [1, 4]: 202%
activity at 10 µM [1, 5]: 148%
activity at 10 µM [1, 6]: 157%
activity at 100 µM [1, 3]: 55.1%
activity at 100 µM [1, 4]: 21.1%
activity at 100 µM [1, 5]: 20.2%
activity at 100 µM [1, 6]: 22.9%
minimal effective concentration ([1]; read-out: endo.mtl.18hr POD): 0.007 µM
minimal effective concentration ([1]; read-out: endo.tlps.18hr POD): 1.93 µM
minimal effective concentration ([1]; read-out: endo.tta.18hr POD): 3.83 µM
minimal effective concentration ([1]; read-out: endo.ttl.18hr POD): 0.58 µM
minimal effective concentration [2, 7]: 19.8 µM
minimal effective concentration [2, 8]: 61.8 µM
minimal effective concentration [2, 9]: 8.87 µM
minimal effective concentration [2, 10]: 0.13 µM
activity at 0.01 µM [2, 11]: 88.3%
activity at 0.01 µM [2, 12]: 103%
activity at 0.01 µM [2, 13]: 72.1%
activity at 0.01 µM [2, 14]: 66.9%
activity at 0.1 µM [2, 11]: 95.5%
activity at 0.1 µM [2, 12]: 80.3%
activity at 0.1 µM [2, 13]: 103%
activity at 0.1 µM [2, 14]: 95.6%
activity at 1 µM [2, 11]: 88.7%
activity at 1 µM [2, 12]: 89.4%
activity at 1 µM [2, 13]: 73.7%
activity at 1 µM [2, 14]: 66.3%
activity at 10 µM [2, 11]: 95.2%
activity at 10 µM [2, 12]: 107%
activity at 10 µM [2, 13]: 115%
activity at 10 µM [2, 14]: 106%
activity at 100 µM [2, 11]: 65.2%
activity at 100 µM [2, 12]: 61%
activity at 100 µM [2, 13]: 54.1%
activity at 100 µM [2, 14]: 48%
